What all share (format): cell-based, human
The subject of one experiment is HHFDPC. Briefly: MTT proliferation of dermal papilla cells. The note with it: peptide 500 nM, 5 μM, 50 μM, 72 hours, vs untreated control, FIG. 1. Here is the method:
While culturing human hair follicle dermal dermal papilla cells (HHFDPC), the absorbance was measured after treatment with the peptide of the present invention to confirm whether there was an effect of promoting the proliferation of the HHFDPC dermal papilla cells.
Specifically, HHFDPC (Sciencell, USA) was seeded at 4×10^3 cells/well in a 96-well culture plate, cultured in MSC complete medium (mesenchymal stem cell complete media, Sciencell, USA) for 24 hours, and then the medium was replaced with serum free MSC complete medium and cultured for another 24 hours. Then, the HHFDPC was treated with the peptide of SEQ ID NO: 1 prepared in the Preparation Example at concentrations of 500 nM, 5 µM, and 50 μM, respectively, and cultured at 37° C. for 72 hours. As a positive control, minoxidil was treated at a concentration of 1 μM, and as a negative control, HHFDPC without any treatment was used. Then, 10 ? of 5 mg/mL MTT solution was added and cultured in a 37° C. CO2 incubator for 4 hours to stain the cells. After removing the medium, the cells were treated with 100 μl of DMSO and shaken for 10 minutes, and the number of HHFDPC cells was confirmed by measuring absorbance at a wavelength of 540 nm using a spectrophotometer.

For a further experiment, the system named is p-AKT. Briefly: Western blotting of phosphorylated AKT in HHFDPC. The note with it: peptide 500 nM, 5 μM, 50 μM, 24 hours, vs control not treated with the peptide, FIG. 2. Here is the method:
(§1) First, phosphorylated forms of AKT and ERK, which act as signaling molecules related to the proliferation of HHFDPC, were confirmed through Western blotting. Specifically, HHFDPC as in [Experiment Example 1-1] above was seeded at 4×10^5 cells/well in a 6-well culture plate, cultured in MSC complete medium (mesenchymal stem cell complete media) for 24 hours, and then the medium was replaced with serum free MSC complete medium and cultured for another 24 hours. Then, the HHFDPC was treated with the peptide of SEQ ID NO: 1 prepared in the Preparation Example at concentrations of 500 nM, 5 μM, and 50 µM, respectively, and cultured at 37° C. for 24 hours. As a positive control, minoxidil was treated at a concentration of 1 μM, and as a negative control, HHFDPC without any treatment was used. Then, Western blotting was performed to detect phosphorylated AKT and phosphorylated ERK. After washing with PBS, the cells were treated with 100 ? of lysis buffer to destroy cells, thereby obtaining cell lysate. After electrophoresis using a 10% SDS-PAGE gel, it was transferred to a PVDF membrane and blocked using 5% skim milk at room temperature for 30 minutes. […] After washing again with 0.1% PBS-T (0.1% Tween-20 in PBS) three times for 15 minutes each, p-AKT and p-ERK were detected by treatment with ECL solution (GE Healthcare, USA).
For orientation: A western blot detects proteins with antibodies after separation by electrophoresis.

For another experiment, the system named is p-ERK. Briefly: Western blotting of phosphorylated ERK in HHFDPC. The conditions noted are these: peptide 500 nM, 5 μM, 50 μM, 24 hours, vs control not treated with the peptide, FIG. 2. Here is the method:
as §1

A further experiment deals with β-catenin. In words: Western blotting of β-catenin moved into the nucleus of HHFDPC. The note with it: HHFDPC nuclear protein, peptide 500 nM, 5 μM, 50 μM, 24 hours, vs control, FIG. 3. Here is the method:
In addition, in addition to p-AKT and p-ERK, in order to confirm the activation of β-catenin, which is known to affect cell proliferation and differentiation, whether β-catenin moved into the nucleus was confirmed through Western blotting. Specifically, the HHFDPC as in [Experiment Example 1-1] was seeded in a 6-well culture plate at an amount of 4×10^5 cells/well, cultured in MSC complete medium (mesenchymal stem cell complete media) for 24 hours. Next, the medium was replaced with serum free MSC complete medium and cultured again for 24 hours. Then, the HHFDPC was treated with the peptide of SEQ ID NO: 1 prepared in the Preparation Example at concentrations of 500 nM, […], and 50 μM, respectively, and cultured at 37° C. for 24 hours. As a positive control, minoxidil was treated at a concentration of 1 μM, and as a negative control, HHFDPC without any treatment was used. After washing with PBS, proteins in the nucleus were isolated using a nuclear protein extraction kit (Thermo scientific, USA). After electrophoresis using a 10% SDS-PAGE gel, it was transferred to a PVDF membrane and blocked using 5% skim milk at room temperature for 30 minutes. […] After washing again with 0.1% PBS-T (0.1% Tween-20 in PBS) three times for 15 minutes each, β-catenin was detected by treatment with ECL solution (GE Healthcare, USA).

In a further experiment the test system is LEF-1. In words: RT-PCR of LEF-1 in HHFDPC. The note with it: peptide 500 nM, 5 μM, 50 μM, 24 hours, vs control without treatment, FIG. 4. Here is the method:
(§2) Furthermore, in order to determine whether the β-catenin moves to the nucleus and is activated to affect proliferation and differentiation, whether the expression of LEF-1, c-Myc and cyclin D1 (cyclin D1), which act as downstream factors, increases with β-catenin activation was confirmed through RT-PCR. Specifically, in the same manner as the previous Western blotting experiment, HHFDPC cells were cultured, treated with the peptides of the Preparation Example of the present invention at concentrations of 500 nM, 5 μM, and 50 μM, respectively, and cultured at 37° C. for 24 hours. After washing the cells with PBS, RNA was isolated by treating them with 300 […] of easy blue (intron, Korea). Then, CDNA was synthesized using a cDNA synthesis kit (enzynomics, Korea) by quantifying it with nano drop, and PCR was performed using primers for LEF-1, c-Myc and cyclin D1 (base sequences of the primers are listed in Table 2 below) and PCR premix (enzynomics, Korea). Electrophoresis was performed on a 1.5% agarose gel, and then the mRNA of LEF-1 and cyclin D1 was detected using a band analysis system (Bio-Rad gel image system).

The test system of another experiment is c-Myc. In words: RT-PCR of c-Myc in HHFDPC. The note with it: peptide 500 nM, 5 μM, 50 μM, 24 hours, vs control without treatment, FIG. 4. Here is the method: as §2
The test system of another experiment is cyclin D1. Briefly: RT-PCR of cyclin D1 in HHFDPC. The conditions noted are these: peptide 500 nM, 5 μM, 50 μM, 24 hours, vs control without treatment, FIG. 4. Here is the method:
as §2

Another experiment deals with DKK-1 protein. Briefly: Western blotting of DKK-1 protein in DHT-treated HHFDPC. The note with it: HHFDPC with DHT 100 nM, peptide 500 nM, 5 μM, 50 μM, 24 hours, vs negative control (DHT only), FIG. 5. Here is the method: DKK-1 protein (dickkopf-related protein 1) is a hair loss-related protein known to be highly expressed in individuals with hair loss, especially male pattern hair loss, and its expression is known to be promoted by hormones such as DHT (Dihydrotestosterone). Accordingly, the expression of DKK-1 protein was induced by treating HHFDPC cells with DHT together with the peptide according to the Preparation Example of the present invention, and then the expression level of DKK-1 was measured through Western blotting to determine whether there was an effect of suppressing the expression of DKK-1 protein.
Specifically, HHFDPC as in [Experiment Example 1-1] was seeded in a 6-well culture plate at 4×10^5 cells/well and then cultured in MSC complete medium (mesenchymal stem cell complete media) for 24 hours. Next, the medium was replaced with serum free MSC complete medium and cultured again for 24 hours. In addition, the HHFDPC was treated with the peptide of SEQ ID NO: 1 prepared in Preparation Example at concentrations of 500 nM, 5 μM, and 50 μM, respectively, and at this time, DHT, an expression inducer of DKK-1 protein, was simultaneously treated at a concentration of 100 nM and then cultured at 37° C. for 24 hours. […] After washing again with 0.1% PBS-T (0.1% Tween-20 in PBS) three times for 15 minutes each, DKK-1 protein was detected by treatment with ECL solution (GE Healthcare, USA).

The subject of the next experiment is Ha3-II. Briefly: RT-PCR of Ha3-II in HHORSC. The conditions noted are these: peptide 500 nM, 5 μM, 50 μM, 72 hours, vs control without treatment, FIG. 6. Here is the method:
(§3) Specifically, HHORSC (human hair outer root sheath cell, Sciencell, USA) was seeded in a 6-well culture plate at 4×10^5 cells/well and then cultured in MSC complete medium (mesenchymal stem cell complete media) for 24 hours. Next, the medium was replaced with serum free MSC complete medium and cultured again for 24 hours. Then, the HHORSC was treated with the peptide of Preparation Example consisting of amino acid sequence of SEQ ID NO: 1 at concentrations of 500 nM, 5 μM, and 50 μM, respectively, and cultured at 37° C. for 72 hours. As a positive control, EGF was treated at a concentration of 50 nM, and as a negative control, HHORSC without any treatment was used. After washing with PBS, RNA was isolated by treating with 300 ? of easy blue (intron, Korea). Then, CDNA was synthesized using a cDNA synthesis kit (enzynomics, Korea) by quantification using nano drop, and PCR was performed using primer for Ha3-II, Keratin 14, and Keratin 19 (the base sequences of primer are listed in Table 3 below) and PCR premix (enzynomics, Korea). Electrophoresis was performed on a 1.5% agarose gel, and the mRNAs of Ha3-II, Keratin 14, and Keratin 19 were detected using a band analysis system (Bio-Rad gel image system).

The test system of another experiment is Keratin 14. Briefly: RT-PCR of Keratin 14 in HHORSC. The note with it: peptide 500 nM, 5 μM, 50 μM, 72 hours, vs control without treatment, FIG. 6. Here is the method:
as §3

For the next experiment, the system named is Keratin 19. Briefly: RT-PCR of Keratin 19 in HHORSC. The conditions noted are these: peptide 500 nM, 5 μM, 50 μM, 72 hours, vs control without treatment, FIG. 6. Here is the method: as §3
The next experiment has as its system MSX2. Briefly: RT-PCR of MSX2 in HHGMC. The note with it: peptide 500 nM, 5 μM, 50 μM, 72 hours, vs untreated control, FIG. 7. Here is the method:
Specifically, HHGMC (human hair germinal matrix cell, Sciencell, USA) was seeded in a 6-well culture plate at 4×10^5 cells/well and then cultured in MSC complete medium (mesenchymal stem cell complete media) for 24 hours. Next, the medium was replaced with serum free MSC complete medium and cultured again for 24 hours. Then, the HHGMC was treated with the peptide of SEQ ID NO: 1 prepared in the Preparation Example at concentrations of 500 nM, 5 μM, and 50 µM, respectively, and cultured at 37° C. for 72 hours. As a positive control, EGF was treated at a concentration of 50 nM, and as a negative control, HHGMC without any treatment was used. After washing with PBS, RNA was isolated by treating with 300 ? of easy blue (intron, Korea). Next, cDNA was synthesized using a cDNA synthesis kit (enzynomics, Korea) by quantification using nano drop, and PCR was performed using primers for MSX2 (base sequences of primers are listed in Table 4 below) and PCR premix (enzynomics, Korea). Electrophoresis was performed on a 1.5% agarose gel, and MSX2 mRNA was detected using a band analysis system (Bio-Rad gel image system).

Consider “CPRHENPVC [the peptide of the present invention]”, for which the “proliferation of HHFDPC (absorbance at 540 nm, MTT)” value with HHFDPC was “the proliferation of HHFDPC was promoted”. The p-AKT phosphorylation result in the experiment on p-AKT was “phosphorylation was found to be increased”. Besides, the p-ERK phosphorylation entry in the experiment on p-ERK is listed as “phosphorylation was found to be increased”. Also, the “β-catenin moved into the nucleus” value with β-catenin is “migration due to activation of β-catenin increased”. Further, in the experiment on LEF-1, the “LEF-1 mRNA” value is recorded as “the amount of mRNA increased further”. Also, in the experiment with c-Myc, the “c-Myc mRNA” value is listed as “the amount of mRNA increased further”. Besides, the “cyclin D1 mRNA” value with cyclin D1 is given as “the amount of mRNA increased further”. Moreover, in the experiment with DKK-1 protein, the “amount of DKK-1 protein” value was “the amount of DKK-1 protein was found to be reduced”. Moreover, the “Ha3-II mRNA” value in the experiment with Ha3-II was “the amount of mRNA increased further”. Moreover, the “Keratin 14 mRNA” value with Keratin 14 is “the amount of mRNA increased further”. For the same sequence, in the experiment on Keratin 19, the “Keratin 19 mRNA” value is given as “the amount of mRNA increased further”. For the same sequence, the “MSX2 mRNA” value with MSX2 is recorded as “the amount of mRNA increased further”.
